Measurements reported in patent US20090111778A1, “2-Keto-Oxazoles as Modulators of Fatty Acid Amide Hydrolase” (priority 2005, published 2009).
Where two headings read alike, the source gives them in different places.

Assays:
rat FAAH = target: T1, rat FAAH (Rattus norvegicus, UniProt P97612); test: Assay Method 2: FAAH assay, hydrolysis of 3H-anandamide by homogenate of SK-N-MC cells transfected with rat FAAH; assay type: biochemical; details: T84 or transfected SK-N-MC cell homogenate, 3H-AEA tracer 80 nM, rt 1 h, pH 9
T1 construct: expressed in transfected cells
T1 sequence (P97612 1-579): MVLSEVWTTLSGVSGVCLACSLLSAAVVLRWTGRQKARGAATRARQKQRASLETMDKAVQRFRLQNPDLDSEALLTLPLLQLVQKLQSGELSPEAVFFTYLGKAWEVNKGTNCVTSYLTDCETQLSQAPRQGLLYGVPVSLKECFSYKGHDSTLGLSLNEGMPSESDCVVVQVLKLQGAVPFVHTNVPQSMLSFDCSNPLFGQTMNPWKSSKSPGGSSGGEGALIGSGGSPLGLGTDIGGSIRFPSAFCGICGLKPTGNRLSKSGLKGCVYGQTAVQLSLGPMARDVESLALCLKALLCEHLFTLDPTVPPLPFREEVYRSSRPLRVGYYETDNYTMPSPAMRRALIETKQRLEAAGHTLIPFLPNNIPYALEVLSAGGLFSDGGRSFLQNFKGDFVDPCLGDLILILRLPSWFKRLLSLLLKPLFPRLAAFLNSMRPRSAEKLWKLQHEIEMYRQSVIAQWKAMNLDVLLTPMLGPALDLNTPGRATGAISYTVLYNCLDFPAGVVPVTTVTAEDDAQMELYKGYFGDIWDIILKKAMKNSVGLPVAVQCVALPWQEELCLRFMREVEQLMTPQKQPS
Method: A. Transfection of Cells with Rat FAAH A 10-cm tissue culture dish with a confluent monolayer of SK-N-MC cells was split 2 days (d) prior to transfection. Using sterile technique, the media was removed and the cells were detached from the dish by the addition of trypsin. One fifth of the cells were then placed onto a new 10-cm dish. Cells were grown in a 37° C. incubator with 5% CO2 in Minimal Essential Media Eagle with 10% Fetal Bovine Serum. After 2 d, cells were approximately 80% confluent. These cells were removed from the dish with trypsin and pelleted in a clinical centrifuge. The pellet was re-suspended in 400 μL complete media and transferred to an electroporation cuvette with a 0.4 cm gap between the electrodes. Supercoiled rat FAAH cDNA (1 μg) was added to the cells and mixed. The voltage for the electroporation was set at 0.25 kV, and the capacitance was set at 960 μF. After electroporation, the cells were diluted into complete media (10 mL) and plated onto four 10-cm dishes. Because of the variability in the efficiency of electroporation, four different concentrations of cells were plated. The ratios used were 1:20, 1:10, and 1:5, with the remainder of the cells being added to the fourth dish. The cells were allowed to recover for 24 h before adding the selection media (complete media with 600 μg/mL G418). After 10 d, dishes were analyzed for surviving colonies of cells. Dishes with well-isolated colonies were used. Cells from individual colonies were isolated and tested. […] B. FAAH Assay […] The reaction mixture was incubated at rt for 1 h. During the incubation, 96-well Multiscreen filter plates (catalog number MAFCNOB50; Millipore, Bedford, Mass., USA) were loaded with 25 μL of activated charcoal (Multiscreen column loader, catalog number MACL09625, Millipore) and washed once with 100 μL of MeOH. Also during the incubation, 96-well DYNEX MicroLite plates (catalog number NL510410) were loaded with 100 μL of MicroScint40 (catalog number 6013641, Packard Bioscience, Meriden, Conn., USA). After the 1 h incubation, 60 μL of the reaction mixture were transferred to the charcoal plates, which were then assembled on top of the DYNEX plates using Centrifuge Alignment Frames (catalog number MACF09604, Millipore). The unbound labeled ethanolamine was centrifuged through to the bottom plate (5 min at 2000 rpm), which was preloaded with the scintillant, as described above. The plates were sealed and left at rt for 1 h before counting on a Hewlett Packard TopCount.

human FAAH = target: T2, human FAAH (Homo sapiens, UniProt O00519); test: Assay Method 1: FAAH assay, hydrolysis of 3H-anandamide by homogenate of SK-N-MC cells transfected with human FAAH; assay type: biochemical
T2 construct: expressed in transfected cells
T2 sequence (O00519 1-579): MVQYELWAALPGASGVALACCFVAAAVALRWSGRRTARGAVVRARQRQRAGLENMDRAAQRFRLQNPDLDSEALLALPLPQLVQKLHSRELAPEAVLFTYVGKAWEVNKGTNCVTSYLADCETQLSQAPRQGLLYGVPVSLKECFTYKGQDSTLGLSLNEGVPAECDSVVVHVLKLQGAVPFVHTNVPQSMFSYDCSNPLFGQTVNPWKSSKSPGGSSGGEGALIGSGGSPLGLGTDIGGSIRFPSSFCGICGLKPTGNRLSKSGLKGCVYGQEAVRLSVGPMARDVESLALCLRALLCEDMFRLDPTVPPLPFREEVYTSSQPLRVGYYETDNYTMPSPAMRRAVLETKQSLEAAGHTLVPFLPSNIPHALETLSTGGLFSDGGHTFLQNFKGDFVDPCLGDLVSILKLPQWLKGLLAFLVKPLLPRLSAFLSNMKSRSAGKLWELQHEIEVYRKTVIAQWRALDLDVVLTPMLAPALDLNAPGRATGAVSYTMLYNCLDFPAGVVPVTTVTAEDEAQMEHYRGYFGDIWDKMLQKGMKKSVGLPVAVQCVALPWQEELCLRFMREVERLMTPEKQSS
Method: A. Transfection of Cells with Human FAAH
A 10-cm tissue culture dish with a confluent monolayer of SK-N-MC cells was split 2 days (d) prior to transfection. Using sterile technique, the media was removed and the cells were detached from the dish by the addition of trypsin. One fifth of the cells were then placed onto a new 10-cm dish. Cells were grown in a 37° C. incubator with 5% CO2 in Minimal Essential Media Eagle with 10% Fetal Bovine Serum. After 2 d, cells were approximately 80% confluent. These cells were removed from the dish with trypsin and pelleted in a clinical centrifuge. The pellet was re-suspended in 400 μL complete media and transferred to an electroporation cuvette with a 0.4 cm gap between the electrodes. Supercoiled human FAAH cDNA (1 μg) was added to the cells and mixed. The voltage for the electroporation was set at 0.25 kV, and the capacitance was set at 960 μF. After electroporation, the cells were diluted into complete media (10 mL) and plated onto four 10-cm dishes. Because of the variability in the efficiency of electroporation, four different concentrations of cells were plated. The ratios used were 1:20, 1:10, and 1:5, with the remainder of the cells being added to the fourth dish. The cells were allowed to recover for 24 h before adding the selection media (complete media with 600 μg/mL G418). After 10 d, dishes were analyzed for surviving colonies of cells. Dishes with well-isolated colonies were used. Cells from individual colonies were isolated and tested.
The assay mixture consisted of […] of the cell homogenate, 10 μL of the test compound, and 40 μL of anandamide [1-^3H-ethanolamine] (3H-AEA, Perkin-Elmer, 10.3 Ci/mmol), which was added last, for a final tracer concentration of 80 nM. The reaction mixture was incubated at rt for 1 h. During the incubation, 96-well Multiscreen filter plates (catalog number MAFCNOB50; Millipore, Bedford, Mass., USA) were loaded with 25 μL of activated charcoal (Multiscreen column loader, catalog number MACL09625, Millipore) and washed once with 100 μL of MeOH. Also during the incubation, 96-well DYNEX MicroLite plates (catalog number NL510410) were loaded with 100 μL of MicroScint40 (catalog number 6013641, Packard Bioscience, Meriden, Conn., USA). After the 1 h incubation, 60 μL of the reaction mixture were transferred to the charcoal plates, which were then assembled on top of the DYNEX plates using Centrifuge Alignment Frames (catalog number MACF09604, Millipore). The unbound labeled ethanolamine was centrifuged through to the bottom plate (5 min at 2000 rpm), which was preloaded with the scintillant, as described above. The plates were sealed and left at rt for 1 h before counting on a Hewlett Packard TopCount.

[1] = human FAAH, T84 or transfected SK-N-MC cell homogenate, 3H-AEA tracer 80 nM, rt 1 h, pH 9, read-out: Assay 1 IC50

Row | SMILES | IC50 (rat FAAH) [nM] | IC50 (human FAAH; [1]) [nM] | IC50 (human FAAH) [nM]
1 | O=C(CCCC1CCN(C(=O)Cc2cccc(Cl)c2)CC1)c1ncco1 [Example 41, 4-{1-[2-(3-Chloro-phenyl)-acetyl]-piperidin-4-yl}-1-oxazol-2-yl-butan-1-one] | 712 | 640 | 
2 | O=C(CCCC1CCN(C(=O)Cc2ccccc2Cl)CC1)c1ncco1 [Example 42, 4-{1-[2-(2-Chloro-Phenyl)-acetyl]-piperidin-4-yl}-1-oxazol-2-yl-butan-1-one] | 800 | 430 | 
3 | O=C(CCCC1CCN(C(=O)CC2CCCCC2)CC1)c1ncco1 [Example 49, 4-[1-(2-Cyclohexyl-acetyl)-piperidin-4-yl]-1-oxazol-2-yl-butan-1-one] | 350 | 100 | 
4 | O=C(CCCC1CCN(S(=O)(=O)Cc2ccccc2)CC1)c1ncco1 [Example 53, 1-Oxazol-2-yl-4-(1-phenylmethanesulfonyl-piperidin-4-yl)-butan-1-one] | 800 | 600 | 
5 | O=C(CCCC1CCN(S(=O)(=O)CCc2ccccc2)CC1)c1ncco1 [Example 54, 1-Oxazol-2-yl-4-[1-(2-phenyl-ethanesulfonyl)-piperidin-4-yl]-butan-1-one] | 125 | 6 | 
6 | CC(C)S(=O)(=O)N1CCC(CCCC(=O)c2ncco2)CC1 [Example 56, 1-Oxazol-2-yl-4-[1-(propane-2-sulfonyl)-piperidin-4-yl]-butan-1-one] | 3350 |  | 142
7 | CCCS(=O)(=O)N1CCC(CCCC(=O)c2ncco2)CC1 [Example 57, 1-Oxazol-2-yl-4-[1-(propane-1-sulfonyl)-piperidin-4-yl]-butan-1-one] | 1600 | 120 | 
8 | CCCCS(=O)(=O)N1CCC(CCCC(=O)c2ncco2)CC1 [Example 58, 4-[1-(Butane-1-sulfonyl)-piperidin-4-yl]-1-oxazol-2-yl-butan-1-one] | 720 | 60 | 

Continued by falling IC50 (rat FAAH), values first:

Row | IC50 (rat FAAH) [nM] | IC50 (human FAAH; [1]) [nM] | SMILES | IC50 (human FAAH) [nM]
9 | 700 | 400 | O=C(CCCC1CCN(C(=O)CCc2cccnc2)CC1)c1ncco1 [Example 47, 1-Oxazol-2-yl-4-[1-(3-pyridin-3-yl-propionyl)-piperidin-4-yl]-butan-1-one] | 
10 | 635 | 230 | CC(C)CCC(=O)N1CCC(CCCC(=O)c2ncco2)CC1 [Example 51, 4-Methyl-1-[4-(4-oxazol-2-yl-4-oxo-butyl)-piperidin-1-yl]-pentan-1-one] | 
11 | 463 | 834 | Cc1cccc(CC(=O)N2CCC(CCCC(=O)c3ncco3)CC2)c1 [Example 39, 1-Oxazol-2-yl-4-[1-(2-m-tolyl-acetyl)-piperidin-4-yl]-butan-1-one] | 
12 | 216 | 100 | O=C(CCCC1CCN(C(=O)CC2CCCC2)CC1)c1ncco1 [Example 48, 4-[1-(2-Cyclopentyl-acetyl)-piperidin-4-yl]-1-oxazol-2-yl-butan-1-one] | 
13 | 165 | 705 | O=C(CCCC1CCN(S(=O)(=O)c2ccccc2)CC1)c1ncco1 [Example 59, 4-(1-Benzenesulfonyl-piperidin-4-yl)-1-oxazol-2-yl-butan-1-one] | 
14 | 130 | 109 | Cc1ccccc1CCC(=O)N1CCC(CCCC(=O)c2ncco2)CC1 [Example 45, 1-Oxazol-2-yl-4-[1-(3-o-tolyl-propionyl)-piperidin-4-yl]-butan-1-one] | 
15 | 95 | 905 | O=C(CCCC1CCN(S(=O)(=O)c2ccc(F)cc2)CC1)c1ncco1 [Example 55, 4-[1-(4-Fluoro-benzenesulfonyl)-piperidin-4-yl]-1-oxazol-2-yl-butan-1-one] | 
16 | 75 | 43 | O=C(CCCC1CCN(C(=O)Cc2ccc(Cl)cc2)CC1)c1ncco1 [Example 40, 4-{1-[2-(4-Chloro-phenyl)-acetyl]-piperidin-4-yl}1-oxazol-2-yl-butan-1-one] | 
17 | 13 | 1040 | Cc1ccc(S(=O)(=O)N2CCC(CCCC(=O)c3ncco3)CC2)cc1 [Example 52, 1-Oxazol-2-yl-4-[1-(toluene-4-sulfonyl)-piperidin-4-yl]-butan-1-one] | 
18 | 10 | 40 | Cc1ccc(CCC(=O)N2CCC(CCCC(=O)c3ncco3)CC2)cc1 [Example 44, 1-Oxazol-2-yl-4-[1-(3-p-tolyl-propionyl)-piperidin-4-yl]-butan-1-one] | 
19 | 10 | 2 | O=C(CCCC1CCN(C(=O)CCC2CCCCC2)CC1)c1ncco1 [Example 50, 4-[1-(3-Cyclohexyl-propionyl)-piperidin-4-yl]-1-oxazol-2-yl-butan-1-one] | 
20 | 3 | 12 | O=C(CCCC1CCN(C(=O)CCc2ccc(Cl)cc2)CC1)c1ncco1 [Example 46, 4-{1-[3-(4-Chloro-phenyl)-propionyl]-piperidin-4-yl}-1-oxazol-2-yl-butan-1-one] | 
